BindingDB's records for patent US20250066350 (Innovstone Therapeutics, 2025)
pIC50: −log10 of the molar value.

Target: Serine/threonine-protein kinase ATR (Homo sapiens, UniProt Q13535)
Experiment: ATR Enzyme Assay
Description: I. Experimental Materials and Instruments1. ATR enzyme (Eurofins Pharma Discovery Services, 14-953M)2. GST-tagged P53 protein (Eurofins Pharma Discovery Services, 14-952M)3. 384-well plate (Geriner bio-one, 784075)4. U-bottom 96-well plate (Geriner bio-one, 651201)5. Anti-phospho-P53 protein antibody labeled with europium cryptate (cisbio, 61P08KAZ)6. Anti-GST antibody linked to d2 (cisbio, 61GSTDLB)7. ATP solution (Sigma, R0441)8. DTT (Sigma, D0632-259)9. HEPES (Sigma, 15630080)10. Microplate reader (Envision 2104 Multilabel Reader)II. Experimental Steps15 nM ATR enzyme, 80 nM P53 protein, 300 nM ATP (the final concentrations were 40 nM and 150 nM, respectively), and small molecule compounds of various concentrations (the final concentrations (nM) of the ten points were 2985.0, 895.5, 298.5, 110.56, 33.17, 11.06, 4.09, 1.23, 0.41 and 0.15, respectively, and the final dimethyl sulfoxide concentration was 0.498%) were mixed and incubated at room temperature for 90 minutes. 10 μL of 2× cocktail buffer was added to the mixture of ATR, compound and substrate in the assay plate (anti-phospho-p53-Eu and anti-GST-d2 were diluted in the assay buffer). The resulting mixture was centrifuged at 1000 rpm for 30 seconds, and incubated overnight at 4° C. in the dark (a total of 20 μl in each well). The FRET signal (endpoint) was measured in the Envision instrument (HTRF 665/612 ratio was calculated at 665 nm emission and 612 nm emission). Data were processed using GraphPad software.

Sequence of Serine/threonine-protein kinase ATR (Q13535 whole entry): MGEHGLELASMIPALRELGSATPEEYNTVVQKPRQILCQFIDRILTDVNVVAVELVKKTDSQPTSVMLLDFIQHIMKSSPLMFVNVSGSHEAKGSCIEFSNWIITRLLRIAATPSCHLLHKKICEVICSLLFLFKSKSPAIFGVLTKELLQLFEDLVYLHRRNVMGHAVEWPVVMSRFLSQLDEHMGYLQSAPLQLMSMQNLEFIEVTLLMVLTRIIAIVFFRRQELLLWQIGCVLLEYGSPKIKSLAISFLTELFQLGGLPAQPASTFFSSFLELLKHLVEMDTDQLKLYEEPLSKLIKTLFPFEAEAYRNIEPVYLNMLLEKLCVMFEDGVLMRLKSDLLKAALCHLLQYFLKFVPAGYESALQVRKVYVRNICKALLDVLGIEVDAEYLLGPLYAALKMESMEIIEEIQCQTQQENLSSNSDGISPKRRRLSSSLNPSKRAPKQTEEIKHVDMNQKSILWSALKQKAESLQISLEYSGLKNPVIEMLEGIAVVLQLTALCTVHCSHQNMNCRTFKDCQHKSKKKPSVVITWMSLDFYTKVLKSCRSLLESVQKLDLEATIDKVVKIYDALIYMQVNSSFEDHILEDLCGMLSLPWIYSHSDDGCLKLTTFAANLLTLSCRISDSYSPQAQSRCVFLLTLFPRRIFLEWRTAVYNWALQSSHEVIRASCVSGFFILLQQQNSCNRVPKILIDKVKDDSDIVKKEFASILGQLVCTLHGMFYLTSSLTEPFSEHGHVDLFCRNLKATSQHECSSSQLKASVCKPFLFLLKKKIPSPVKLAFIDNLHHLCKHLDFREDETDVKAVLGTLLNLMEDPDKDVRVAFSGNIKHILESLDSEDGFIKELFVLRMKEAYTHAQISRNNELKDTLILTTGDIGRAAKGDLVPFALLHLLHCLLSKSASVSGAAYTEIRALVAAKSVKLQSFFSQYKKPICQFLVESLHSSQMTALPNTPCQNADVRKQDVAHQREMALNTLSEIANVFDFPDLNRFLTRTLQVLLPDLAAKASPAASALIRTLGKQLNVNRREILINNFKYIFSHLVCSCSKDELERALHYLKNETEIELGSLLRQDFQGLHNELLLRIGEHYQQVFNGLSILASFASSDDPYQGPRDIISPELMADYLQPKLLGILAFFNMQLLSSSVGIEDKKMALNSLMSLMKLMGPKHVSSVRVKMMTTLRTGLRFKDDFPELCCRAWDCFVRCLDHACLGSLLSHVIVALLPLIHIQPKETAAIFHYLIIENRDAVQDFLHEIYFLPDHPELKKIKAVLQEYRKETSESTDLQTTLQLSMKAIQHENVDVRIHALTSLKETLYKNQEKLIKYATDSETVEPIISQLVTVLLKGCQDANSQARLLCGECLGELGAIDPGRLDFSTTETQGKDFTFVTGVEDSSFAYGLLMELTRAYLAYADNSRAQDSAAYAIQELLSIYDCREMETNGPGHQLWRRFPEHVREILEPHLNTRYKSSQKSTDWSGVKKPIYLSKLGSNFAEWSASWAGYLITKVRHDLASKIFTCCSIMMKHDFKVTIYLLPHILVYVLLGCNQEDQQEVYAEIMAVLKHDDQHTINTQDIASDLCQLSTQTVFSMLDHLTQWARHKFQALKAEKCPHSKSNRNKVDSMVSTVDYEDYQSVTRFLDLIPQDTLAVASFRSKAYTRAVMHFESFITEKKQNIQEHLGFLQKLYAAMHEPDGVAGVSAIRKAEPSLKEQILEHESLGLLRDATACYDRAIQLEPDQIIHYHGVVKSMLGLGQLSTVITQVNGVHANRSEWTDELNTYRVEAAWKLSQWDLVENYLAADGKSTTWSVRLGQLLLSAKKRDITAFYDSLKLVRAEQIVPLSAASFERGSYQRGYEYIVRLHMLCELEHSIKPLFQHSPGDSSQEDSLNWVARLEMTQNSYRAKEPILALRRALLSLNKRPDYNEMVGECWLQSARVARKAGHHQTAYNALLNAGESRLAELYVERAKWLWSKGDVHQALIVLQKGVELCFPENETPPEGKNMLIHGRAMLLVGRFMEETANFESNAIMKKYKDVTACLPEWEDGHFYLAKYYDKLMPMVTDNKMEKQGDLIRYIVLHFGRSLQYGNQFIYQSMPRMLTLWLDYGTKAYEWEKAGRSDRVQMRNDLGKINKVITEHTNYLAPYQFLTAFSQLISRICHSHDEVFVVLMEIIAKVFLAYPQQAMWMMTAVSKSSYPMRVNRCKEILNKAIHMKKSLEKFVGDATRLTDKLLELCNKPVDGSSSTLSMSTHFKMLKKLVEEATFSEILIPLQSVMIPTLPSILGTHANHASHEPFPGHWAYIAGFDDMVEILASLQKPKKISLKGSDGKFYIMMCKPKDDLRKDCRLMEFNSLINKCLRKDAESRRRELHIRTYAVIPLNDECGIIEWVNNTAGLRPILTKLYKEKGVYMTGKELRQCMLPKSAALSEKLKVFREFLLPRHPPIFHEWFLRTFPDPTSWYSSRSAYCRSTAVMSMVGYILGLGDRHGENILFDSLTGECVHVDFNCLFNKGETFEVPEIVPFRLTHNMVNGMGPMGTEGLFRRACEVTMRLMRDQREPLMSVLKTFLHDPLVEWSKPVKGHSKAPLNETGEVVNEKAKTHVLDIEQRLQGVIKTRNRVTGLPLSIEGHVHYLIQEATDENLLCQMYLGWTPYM

pIC50, > 8.00:
Cc1[nH]nc(C(F)(F)F)c1-c1cc(N2CCOC[C@H]2C)nc2c1cnn2-c1cc[nH]n1 [US20250066350, Example 1]
C[C@@H]1COCCN1c1cc(C2(O)CCC3(CC2)CO3)c2cnn(-c3cc[nH]n3)c2n1 (stereo partly specified) [US20250066350, Example 2]
Cc1nn(C2CCNCC2)c(C(F)(F)F)c1-c1cc(N2CCOC[C@H]2C)nc2c1cnn2-c1cc[nH]n1 [US20250066350, Example 3]
Cc1c(-c2cc(N3CCOC[C@H]3C)nc3c2cnn3-c2cc[nH]n2)c(C(F)(F)F)nn1C1CCNCC1 [US20250066350, Example 4]
COCC#Cc1cc(N2CCOC[C@H]2C)nc2c1cnn2-c1cc[nH]n1 [US20250066350, Example 5]
C[C@@H]1COCCN1c1cc(C#CC2(O)CCCCC2)c2cnn(-c3cc[nH]n3)c2n1 [US20250066350, Example 6]
C[C@@H]1COCCN1c1cc(-c2ccc(N3CCCCC3=O)cc2)c2cnn(-c3cc[nH]n3)c2n1 [US20250066350, Example 7]
C[C@@H]1COCCN1c1cc(C2=CCCOC2)c2cnn(-c3cc[nH]n3)c2n1 [US20250066350, Example 8]
Cc1ccc(-c2cc(N3CCOC[C@H]3C)nc3c2cnn3-c2cc[nH]n2)cn1 [US20250066350, Example 9]
C[C@@H]1COCCN1c1cc(C#CC2(O)CCC3(CC2)CC3)c2cnn(-c3ccn[nH]3)c2n1 [US20250066350, Example 10]
C[C@@H]1COCCN1c1cc(-c2ccnc3[nH]ccc23)c2cnn(-c3cc[nH]n3)c2n1 [US20250066350, Example 11]
C[C@@H]1COCCN1c1cc(C2CCCOC2)c2cnn(-c3cc[nH]n3)c2n1 (stereo partly specified) [US20250066350, Example 13]
C[C@@H]1COCCN1c1cc(-c2ccc(N3CC4(COC4)C3)cc2)c2cnn(-c3cc[nH]n3)c2n1 [US20250066350, Example 15]
C[C@@H]1COCCN1c1cc(C#CC(C)(C)O)c2cnn(-c3cc[nH]n3)c2n1 [US20250066350, Example 16]
C[C@@H]1COCCN1c1cc(-c2ccc(N3CC4CCC(O4)C3=O)cc2)c2cnn(-c3cc[nH]n3)c2n1 (stereo partly specified) [US20250066350, Example 65]
C[C@@H]1COCCN1c1cc(-c2ccc(NC(=O)c3cccc(S(C)(=O)=O)c3)cc2)c2cnn(-c3cc[nH]n3)c2n1 [US20250066350, Example 145]
CCC(CC)C(=O)Nc1ccc(-c2cc(N3CCOC[C@H]3C)nc3c2cnn3-c2cc[nH]n2)cc1 [US20250066350, Example 151]
C[C@@H]1COCCN1c1cc(-c2ccc(N3CCCCCC3=O)cc2)c2cnn(-c3cc[nH]n3)c2n1 [US20250066350, Example 153]
C[C@@H]1COCCN1c1cc(-c2ccc(NC(=O)C3CCOCC3)cc2)c2cnn(-c3cc[nH]n3)c2n1 [US20250066350, Example 155]
C[C@@H]1COCCN1c1cc(-c2ccc(NC(=O)C3CCNC3)cc2)c2cnn(-c3cc[nH]n3)c2n1 (stereo partly specified) [US20250066350, Example 157]
C[C@@H]1COCCN1c1cc(-c2ccc(NC(=O)C3CCCNC3)cc2)c2cnn(-c3cc[nH]n3)c2n1 (stereo partly specified) [US20250066350, Example 159]
CC(=O)N1CCC(C(=O)Nc2ccc(-c3cc(N4CCOC[C@H]4C)nc4c3cnn4-c3cc[nH]n3)cc2)C1 (stereo partly specified) [US20250066350, Example 161]
C[C@@H]1COCCN1c1cc(-c2ccc(NC(=O)c3ccccc3)cc2)c2cnn(-c3cc[nH]n3)c2n1 [US20250066350, Example 163]
C[C@@H]1COCCN1c1cc(-c2ccc(NC(=O)c3ccncn3)cc2)c2cnn(-c3cc[nH]n3)c2n1 [US20250066350, Example 165]
C[C@@H]1COCCN1c1cc(-c2ccc(N3CCCCC3=O)nc2)c2cnn(-c3cc[nH]n3)c2n1 [US20250066350, Example 167]
C[C@@H]1COCCN1c1cc(-c2ccc(N3CCCCC3=O)c(C#N)c2)c2cnn(-c3cc[nH]n3)c2n1 [US20250066350, Example 169]
C[C@@H]1COCCN1c1cc(-c2ccc(N3CCCCC3=O)c(F)c2)c2cnn(-c3cc[nH]n3)c2n1 [US20250066350, Example 171]
C[C@@H]1COCCN1c1cc(-c2ccc3c(c2)CCN3C(=O)c2ccncc2)c2cnn(-c3cc[nH]n3)c2n1 [US20250066350, Example 183]
C[C@@H]1COCCN1c1cc(-c2ccc(NC(=O)NC34CC5CC(CC(C5)C3)C4)cc2)c2cnn(-c3cc[nH]n3)c2n1 [US20250066350, Example 187]
C[C@@H]1COCCN1c1cc(-c2ccc(NC(=O)c3cccnc3)cc2F)c2cnn(-c3cc[nH]n3)c2n1 [US20250066350, Example 195]
C[C@@H]1COCCN1c1cc(-c2ccc(N3CCCCCC3=O)cc2F)c2cnn(-c3cc[nH]n3)c2n1 [US20250066350, Example 197]
C[C@@H]1COCCN1c1cc(-c2ccc(N3CC4CCC(O4)C3=O)cc2F)c2cnn(-c3cc[nH]n3)c2n1 (stereo partly specified) [US20250066350, Example 199]
C[C@@H]1COCCN1c1cc(-c2ccc(NC(=O)N3CCCC3)cc2)c2cnn(-c3cc[nH]n3)c2n1 [US20250066350, Example 207]
C[C@@H]1COCCN1c1cc(C#CC2CCCNC2)c2cnn(-c3ccn[nH]3)c2n1 (stereo partly specified) [US20250066350, Example 209]
C[C@@H]1COCCN1c1cc(-c2ccc(NC(=O)C3CCN(C)C3)cc2)c2cnn(-c3cc[nH]n3)c2n1 (stereo partly specified) [US20250066350, Example 213]
CNC(=O)N(C)c1ccc(-c2cc(N3CCOC[C@H]3C)nc3c2cnn3-c2cc[nH]n2)cc1 [US20250066350, Example 215]
C[C@@H]1COCCN1c1cc(-c2ccc(NC(=O)C(F)F)cc2)c2cnn(-c3cc[nH]n3)c2n1 [US20250066350, Example 217]
C[C@@H]1COCCN1c1cc(-c2ccc(N3CCCCC3=O)cc2C(F)(F)F)c2cnn(-c3cc[nH]n3)c2n1 [US20250066350, Example 242]
CC1CCCN1C(=O)Nc1ccc(-c2cc(N3CCOC[C@H]3C)nc3c2cnn3-c2cc[nH]n2)c(F)c1 (stereo partly specified) [US20250066350, Example 252]
C[C@@H]1COCCN1c1cc(-c2ccc(-c3ccnn3C)cc2F)c2cnn(-c3cc[nH]n3)c2n1 [US20250066350, Example 258]
C[C@@H]1COCCN1c1cc(-c2cc(C#N)c(N3CCCCC3=O)cc2F)c2cnn(-c3cc[nH]n3)c2n1 [US20250066350, Example 259]
